Results on eight molecules are retold here after patent publication US5180665A, “Method for quantitatively assaying the presence of diarrhetic shellfish poisoning toxins in marine samples” (priority 1990, dated 1993).

Read-outs that look alike come from different tables or passages of the source. Numbered stars: 1 amine (or outer) side, 2 acyl side, 3 side chain; on linkers, the order of the positions; unused ones are H or OH. Bridge positions count the residues as written; N and C are the ends. Square brackets hold non-standard residues; d marks the D form. Peptide text beside a SMILES is read from it. Adda = CO[C@@H](Cc1ccccc1)[C@@H](C)/C=C(C)/C=C/[C@H](N[*:1])[C@H](C)C(=O)[*:2]; dAsp(3S-Me) = C[C@H](C(=O)[*:3])[C@@H](N[*:1])C(=O)[*:2]; d(γGlu) = O=C(O)[C@@H](CCC(=O)[*:2])N[*:1]; NMeDha = C=C(NC)C(=O)O

For series [1], the target named is protein phosphatase-1 (PP1) catalytic subunit. Briefly: Standard phosphorylase a phosphatase assay, inhibition of PP1 catalytic subunit. The class given is biochemical, rabbit. To be noted: for inhibition of PP1: result in words.
The target of series [2] is T1, protein phosphatase-2A (PP2A) catalytic subunit (Oryctolagus cuniculus, UniProt P67777).
T1 construct: Homogeneous PP-1 and -2A catalytic subunits were purified from rabbit skeletal muscle; from tissue; host or cells: rabbit skeletal muscle
Description: Standard phosphorylase a phosphatase assay, inhibition of PP2A catalytic subunit. The following applies: for inhibition of PP2A: result in words. It counts as biochemical, rabbit.

Series [3] concerns PP1/PP2A. Description: LC-linked protein phosphatase bioassay, cross-reactivity. It counts as biochemical, rabbit. To be noted: result in words.
For series [4], the system named is protein phosphatase-1 (PP1). To be noted: literature, result in words; cited from earlier work.
The test system of series [5] is protein phosphatase-2A (PP2A). To be noted: literature, result in words; cited from earlier work.
Series [6] has as its system mouse skin. The following applies: cited from earlier work.

T1 sequence (P67777 whole entry): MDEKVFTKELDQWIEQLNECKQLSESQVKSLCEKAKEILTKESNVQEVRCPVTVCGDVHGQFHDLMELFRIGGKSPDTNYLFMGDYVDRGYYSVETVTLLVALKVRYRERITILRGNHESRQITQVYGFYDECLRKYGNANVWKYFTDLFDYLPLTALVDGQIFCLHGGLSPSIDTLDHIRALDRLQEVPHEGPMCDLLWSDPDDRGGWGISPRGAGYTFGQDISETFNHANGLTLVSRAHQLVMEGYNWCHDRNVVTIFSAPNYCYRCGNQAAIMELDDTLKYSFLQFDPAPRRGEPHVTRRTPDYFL

Regarding `C=C1C(=O)N[C@H](C)C(=O)N[C@@H](CC(C)C)C(=O)N[C@@H](C(=O)O)[C@H](C)C(=O)N[C@@H](CCCNC(=N)N)C(=O)N[C@@H](/C=C/C(C)=C/[C@H](C)[C@H](Cc2ccccc2)OC)[C@H](C)C(=O)N[C@@H](C(=O)O)CCC(=O)N1C` [Microcystin-LR] (R[Adda][d(γGlu)][NMeDha][dA]L[dAsp(3S-Me)]-OH; lactam N-7), the IC50 (in general, the concentration needed to halve the response being measured) amounted to 0.1 nM in series [1] (pH 7) and 0.1 nM in series [2] (pH 7, read-out: IC50 for PP2A inhibition).

For `C/C(=C/C=C/[C@@H](C)C(=O)O)[C@H]1CN[C@H](C(=O)O)[C@H]1CC(=O)O` [domoic acid], the “cross-reactivity in the LC-linked protein phosphatase bioassay” value in series [3] is given as “does not cross-react”.

On to `CO[C@@H]1[C@@H](OC)[C@H](C)[C@@](O)(CC(=O)O)O[C@H]1[C@H](C)[C@H]1O[C@@]2(CC[C@@](C)([C@H]3CC[C@@](C)([C@@H]4O[C@@H]([C@H]5O[C@](C)(O)[C@H](C)C[C@@H]5C)C[C@@H]4O[C@@H]4C[C@H](OC)[C@@H](OC)[C@H](C)O4)O3)O2)C[C@H](O)[C@H]1C` [maduramycin], for which, in series [1], the “inhibition of PP1” value was “not inhibited”. In addition, the “inhibition of PP2A” value in series [2] was “not inhibited”.

`CC[C@@]1([C@@H]2O[C@@H]([C@H]3O[C@@](O)(CO)[C@H](C)C[C@@H]3C)C[C@@H]2C)CC[C@H]([C@]2(C)CC[C@]3(C[C@H](O)[C@@H](C)[C@@H]([C@@H](C)[C@@H](OC)[C@H](C)C(=O)O)O3)O2)O1` [monensin]: the “inhibition of PP1” value in series [1] is reported as “not inhibited”. In series [2], the “inhibition of PP2A” value is reported as “not inhibited”.

`CO[C@@H]1C[C@@H](C[C@H]2CC[C@H](C)[C@H]([C@@H](C)C(=O)O)O2)O[C@]2(O[C@](C)([C@H]3CC[C@@](C)([C@@H]4O[C@@H]([C@H]5O[C@@](O)(CO)[C@H](C)C[C@@H]5C)C[C@@H]4C)O3)C[C@H]2C)[C@@H]1C` [nigericin]: the “inhibition of PP1” value in series [1] is listed as “not inhibited”. For the same molecule, the “inhibition of PP2A” value in series [2] is recorded as “not inhibited”.

In the case of `C=C1[C@@H](O)[C@@H]2O[C@]3(CC[C@H](/C=C/[C@@H](C)[C@@H]4CC(C)=C[C@@]5(O[C@H](C[C@@](C)(O)C(=O)O)CC[C@H]5O)O4)O3)CC[C@H]2O[C@@H]1[C@@H](O)C[C@H](C)[C@H]1O[C@@]2(CCCCO2)CC[C@H]1C` [okadaic acid], in series [4], the “inhibitor of protein phosphatase-1” value was “potent and specific inhibitor”. Further, in series [5], the “inhibitor of protein phosphatase-2A” value was “potent and specific inhibitor”. For the same molecule, the IC50 in series [1] (standard phosphorylase a phosphatase assay, 1 mU/ml PP1, pH 7.0, 30° C.) is 19 nM; in series [2] (PP2A diluted to 0.03 mU/ml in the standard assay, read-out: IC50 for okadaic acid with diluted PP2A) it was 0.04 nM. In series [2] (PP2A relative to PP1, standard assay), the “fold stronger inhibition of PP2A than PP1” value is on record as 90(+10) fold. Besides, in series [6] (result in words), the tumour promotion result is “powerful tumour promoters”. The “tumour promoting potency compared with phorbol esters” value in series [6] (two-stage carcinogenesis, mouse skin, versus phorbol esters) is on record as “comparable potency”.

`CC[C@@H](C(=O)[C@@H](C)[C@@H](O)[C@H](C)[C@@H]1O[C@@H]([C@@H](CC)C(=O)O)CC[C@@H]1C)[C@H]1O[C@]2(C=C[C@@H](O)[C@]3(CC[C@@](C)([C@H]4CC[C@](O)(CC)[C@H](C)O4)O3)O2)[C@H](C)C[C@@H]1C` [salinomycin]: the “inhibition of PP1” value in series [1] is reported as “not inhibited”. Moreover, the “inhibition of PP2A” value in series [2] is listed as “not inhibited”.

In the case of dinophysistoxin-1, in series [2] (rabbit), the “fold stronger inhibition of PP2A than PP1” value is 90(+10) fold. In series [6] (mouse, in vivo), the “tumour promoting potency compared with phorbol esters” value was “comparable potency” and the tumour promotion result is on record as “powerful tumour promoters”.
